A word on the EC50: it is the concentration giving half of the maximal effect.

For the experiment, the target named is T1, Human GPR35 (Homo sapiens, UniProt Q9HC97).
T1 construct: Tango receptor fusion (protease cleavage site + Gal4-VP16 transcription factor); host or cells: Jump-In Tango U2OS cells
T1 sequence (Q9HC97 whole entry, the tested form may be a part): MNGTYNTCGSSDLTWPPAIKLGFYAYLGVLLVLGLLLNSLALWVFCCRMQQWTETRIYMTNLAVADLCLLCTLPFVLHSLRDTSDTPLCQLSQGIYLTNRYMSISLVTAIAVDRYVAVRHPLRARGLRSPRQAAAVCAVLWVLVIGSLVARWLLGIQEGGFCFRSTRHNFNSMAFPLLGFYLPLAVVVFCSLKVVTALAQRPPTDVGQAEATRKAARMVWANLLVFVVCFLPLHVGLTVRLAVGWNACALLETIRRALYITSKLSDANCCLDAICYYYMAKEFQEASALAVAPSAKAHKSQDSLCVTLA
As to the kind of experiment: Beta-Arrestin Assay. It counts as cell-based. To be noted: Human GPR35 expressing JumpIn 294S Tango U2OS cells; compounds overnight; LiveBLAzer-FRET B/G (CCF4-AM) readout. As to the method: Human GPR35 expressing JumpIn (Thermo Fisher) 294S Tango U2OS cells were plated in 384-well format in clear bottom plates at a cell density of 10,000 cells/well and allowed to adhere for 5 hours. Cells were then treated with serially diluted test compounds overnight. The next day, LiveBLAzer-FRET B/G (CCF4-AM) detection reagents were added, and cells were allowed to incubate for 4 hours in the dark at room temp before reading plates on a BioTek Cytation 5 plate reader. To determine EC50 values, data were fit to a four-parameter dose-response curves.
Compound `CCOc1cc(-c2cccc(CCC(=O)NOC)c2)ccc1-c1nc2[nH]nnc2c(=O)[nH]1` [Compound 118, 3-(3′-Ethoxy-4′-(7-oxo-6,7-dihydro-3H-[1,2,3]triazolo[4,5-d]pyrimidin-5-yl)-[1,1′-biphenyl]-3-yl)-N-methoxypropanamide] displayed an EC50 of 1000 to 10000 nM.

Compound `CCOc1cc(-c2cccc(CCC(=O)NO)c2)ccc1-c1nc2[nH]nnc2c(=O)[nH]1` [Compound 117, 3-(3′-Ethoxy-4′-(7-oxo-6,7-dihydro-3H-[1,2,3]triazolo[4,5-d]pyrimidin-5-yl)-[1,1′-biphenyl]-3-yl)-N-hydroxypropanamide] registered a concentration giving a half-maximal response (EC50) of 1000 to 10000 nM. The compound `CCOc1cc(-c2cccc(S(N)(=O)=O)c2)ccc1-c1nc2[nH]nnc2c(=O)[nH]1` [Compound 106, 3′-Ethoxy-4′-(7-oxo-6,7-dihydro-3H-[1,2,3]triazolo[4,5-d]pyrimidin-5-yl)-[1,1′-biphenyl]-3-sulfonamide] gave an EC50 of 1000 to 10000 nM. To `CCOc1cc(-c2ccc(OCCN)c(CCC(=O)O)c2)ccc1-c1nc2[nH]nnc2c(=O)[nH]1` [Compound 116, 3-(4-(2-Aminoethoxy)-3′-ethoxy-4′-(7-oxo-6,7-dihydro-3H-[1,2,3]triazolo[4,5-d]pyrimidin-5-yl)-[1,1′-biphenyl]-3-yl)propanoic acid] belongs ≤ 1000 nM. To `CCOc1cc(-c2cccc(CC3OC(=O)NC3=O)c2)ccc1-c1nc2[nH]nnc2c(=O)[nH]1` (stereo not shown) [Compound 125, 5-((3′-Ethoxy-4′-(7-oxo-6,7-dihydro-3H-[1,2,3]triazolo[4,5-d]pyrimidin-5-yl)-[1,1′-biphenyl]-3-yl)methyl)oxazolidine-2,4-dione] belongs ≤ 1000 nM; to `CCOc1cc(-c2ccc(O)c(O)c2)ccc1-c1nc2[nH]nnc2c(=O)[nH]1` [Compound 108, 5-(3-Ethoxy-3′,4′-dihydroxy-[1,1′-biphenyl]-4-yl)-3,6-dihydro-7H-[1,2,3]triazolo[4,5-d]pyrimidin-7-one], ≤ 1000 nM. Compound `CCOc1cc(-c2cc(CCC(=O)O)cc(OCCN)c2)ccc1-c1nc2[nH]nnc2c(=O)[nH]1` [Compound 115, 3-(5-(2-aminoethoxy)-3′-ethoxy-4′-(7-oxo-6,7-dihydro-3H-[1,2,3]triazolo[4,5-d]pyrimidin-5-yl)-[1,1′-biphenyl]-3-yl)propanoic acid] had an EC50 of 1000 to 10000 nM. To `CCOc1cc(-c2cc(O)cc(CCC(=O)O)c2)ccc1-c1nc2[nH]nnc2c(=O)[nH]1` [Compound 113, 3-(3′-Ethoxy-5-hydroxy-4′-(7-oxo-6,7-dihydro-3H-[1,2,3]triazolo[4,5-d]pyrimidin-5-yl)-[1,1′-biphenyl]-3-yl)propanoic acid] belongs ≤ 1000 nM; to `CCOc1cc(-c2ccc(O)cc2O)ccc1-c1nc2[nH]nnc2c(=O)[nH]1` [Compound 110, 5-(3-Ethoxy-2′,4′-dihydroxy-[1,1′-biphenyl]-4-yl)-3,6-dihydro-7H-[1,2,3]triazolo[4,5-d]pyrimidin-7-one], 1000 to 10000 nM; to `CCOc1cc(-c2ccc(CO)cc2)ccc1-c1nc2[nH]nnc2c(=O)[nH]1` [Compound 105, 5-(3-Ethoxy-4′-(hydroxymethyl)-[1,1′-biphenyl]-4-yl)-3,6-dihydro-7H-[1,2,3]triazolo[4,5-d]pyrimidin-7-one], ≤ 1000 nM. To `CCOc1cc(-c2cccc(CC3SC(=O)NC3=O)c2)ccc1-c1nc2[nH]nnc2c(=O)[nH]1` (stereo not shown) [Compound 121, 5-((3′-Ethoxy-4′-(7-oxo-6,7-dihydro-3H-[1,2,3]triazolo[4,5-d]pyrimidin-5-yl)-[1,1′-biphenyl]-3-yl)methyl)thiazolidine-2,4-dione] belongs ≤ 1000 nM; to `CCOc1cc(-c2cccc(CCC(=O)NS(=O)(=O)N(C)C)c2)ccc1-c1nc2[nH]nnc2c(=O)[nH]1` [Compound 123, N—(N,N-Dimethylsulfamoyl)-3-(3′-ethoxy-4′-(7-oxo-6,7-dihydro-3H-[1,2,3]triazolo[4,5-d]pyrimidin-5-yl)-[1,1′-biphenyl]-3-yl)propanamide], ≤ 1000 nM; to `CCOc1cc(-c2cccc(CCc3noc(=O)[nH]3)c2)ccc1-c1nc2[nH]nnc2c(=O)[nH]1` [Compound 122, 3-(2-(3′-Ethoxy-4′-(7-oxo-6,7-dihydro-3H-[1,2,3]triazolo[4,5-d]pyrimidin-5-yl)-[1,1′-biphenyl]-3-yl)ethyl)-1,2,4-oxadiazol-5(4H)-one], ≤ 1000 nM. The figure for `CCOc1cc(-c2cccc(CCC(N)=O)c2)ccc1-c1nc2[nH]nnc2c(=O)[nH]1` [Compound 119, 3-(3′-Ethoxy-4′-(7-oxo-6,7-dihydro-3H-[1,2,3]triazolo[4,5-d]pyrimidin-5-yl)-[1,1′-biphenyl]-3-yl)propanamide] is 1000 to 10000 nM; for `CCOc1cc(-c2cccc(CCc3nnn[nH]3)c2)ccc1-c1nc2[nH]nnc2c(=O)[nH]1` [Compound 124, 5-(3′-(2-(1H-Tetrazol-5-yl)ethyl)-3-ethoxy-[1,1′-biphenyl]-4-yl)-3,6-dihydro-7H-[1,2,3]triazolo[4,5-d]pyrimidin-7-one] it is ≤ 1000 nM. On to `CCOc1cc(-c2cccc(CCCO)c2)ccc1-c1nc2[nH]nnc2c(=O)[nH]1` [Compound 102, 5-(3-Ethoxy-3′-(3-hydroxypropyl)-[1,1′-biphenyl]-4-yl)-3,6-dihydro-7H-[1,2,3]triazolo[4,5-d]pyrimidin-7-one], for which the half-maximal effective concentration (EC50) was ≤ 1000 nM. To `CCOc1cc(-c2ccc(S(N)(=O)=O)cc2)ccc1-c1nc2[nH]nnc2c(=O)[nH]1` [Compound 107, 3′-Ethoxy-4′-(7-oxo-6,7-dihydro-3H-[1,2,3]triazolo[4,5-d]pyrimidin-5-yl)-[1,1′-biphenyl]-4-sulfonamide] belongs 1000 to 10000 nM; to `CCOc1cc(-c2ccc(C(N)=O)cc2)ccc1-c1nc2[nH]nnc2c(=O)[nH]1` [Compound 101, 3′-Ethoxy-4′-(7-oxo-6,7-dihydro-3H-[1,2,3]triazolo[4,5-d]pyrimidin-5-yl)-[1,1′-biphenyl]-4-carboxamide], ≤ 1000 nM; to `CCOc1cc(-c2cccc(/C=C3\SC(=O)NC3=O)c2)ccc1-c1nc2[nH]nnc2c(=O)[nH]1` [Compound 120, (Z)-5-((3′-Ethoxy-4′-(7-oxo-6,7-dihydro-3H-[1,2,3]triazolo[4,5-d]pyrimidin-5-yl)-[1,1′-biphenyl]-3-yl)methylene)thiazolidine-2,4-dione], ≤ 1000 nM. The figure for `CCOc1cc(-c2cc(O)cc(CCC(N)=O)c2)ccc1-c1nc2[nH]nnc2c(=O)[nH]1` [Compound 114, 3-(3′-Ethoxy-5-hydroxy-4′-(7-oxo-6,7-dihydro-3H-[1,2,3]triazolo[4,5-d]pyrimidin-5-yl)-[1,1′-biphenyl]-3-yl)propanamide] is ≤ 1000 nM; for `CCOc1cc(-c2cc(O)ccc2O)ccc1-c1nc2[nH]nnc2c(=O)[nH]1` [Compound 109, 5-(3-Ethoxy-2′,5′-dihydroxy-[1,1′-biphenyl]-4-yl)-3,6-dihydro-7H-[1,2,3]triazolo[4,5-d]pyrimidin-7-one] it is ≤ 1000 nM; for `CCOc1cc(-c2cccc(C(O)(O)C(F)(F)F)c2)ccc1-c1nc2[nH]nnc2c(=O)[nH]1` [Compound 127, 5-(3-Ethoxy-3′-(2,2,2-trifluoro-1,1-dihydroxyethyl)-[1,1′-biphenyl]-4-yl)-3,6-dihydro-7H-[1,2,3]triazolo[4,5-d]pyrimidin-7-one] it is ≤ 1000 nM. Consider `CCOc1cc(-c2cccc(CCO)c2)ccc1-c1nc2[nH]nnc2c(=O)[nH]1` [Compound 103, 5-(3-Ethoxy-3′-(2-hydroxyethyl)-[1,1′-biphenyl]-4-yl)-3,6-dihydro-7H-[1,2,3]triazolo[4,5-d]pyrimidin-7-one], for which the concentration for a half-maximal effect (EC50) lay in the range of 1000 to 10000 nM. To `CCOc1cc(-c2ccc(C(O)(O)C(F)(F)F)cc2)ccc1-c1nc2[nH]nnc2c(=O)[nH]1` [Compound 128, 5-(3-Ethoxy-4′-(2,2,2-trifluoro-1,1-dihydroxyethyl)-[1,1′-biphenyl]-4-yl)-3,6-dihydro-7H-[1,2,3]triazolo[4,5-d]pyrimidin-7-one] belongs ≤ 1000 nM; to `CCOc1cc(-c2cccc(CO)c2)ccc1-c1nc2[nH]nnc2c(=O)[nH]1` [Compound 104, 5-(3-Ethoxy-3′-(hydroxymethyl)-[1,1′-biphenyl]-4-yl)-3,6-dihydro-7H-[1,2,3]triazolo[4,5-d]pyrimidin-7-one], ≤ 1000 nM; to `CCOc1cc(-c2cc(O)cc(O)c2)ccc1-c1nc2[nH]nnc2c(=O)[nH]1` [Compound 111, 5-(3-Ethoxy-3′,5′-dihydroxy-[1,1′-biphenyl]-4-yl)-3,6-dihydro-7H-[1,2,3]triazolo[4,5-d]pyrimidin-7-one], ≤ 1000 nM. The figure for `CCOc1cc(-c2cc(O)cc(/C=C/C(=O)O)c2)ccc1-c1nc2[nH]nnc2c(=O)[nH]1` [Compound 112, (E)-3-(3′-ethoxy-5-hydroxy-4′-(7-oxo-6,7-dihydro-3H-[1,2,3]triazolo[4,5-d]pyrimidin-5-yl)-[1,1′-biphenyl]-3-yl)acrylic acid] is ≤ 1000 nM; for `CCOc1cc(-c2cccc(Cc3c(C)[nH]oc3=O)c2)ccc1-c1nc2[nH]nnc2c(=O)[nH]1` [Compound 126, 4-((3′-Ethoxy-4′-(7-oxo-6,7-dihydro-3H-[1,2,3]triazolo[4,5-d]pyrimidin-5-yl)-[1,1′-biphenyl]-3-yl)methyl)-3-methylisoxazol-5(2H)-one] it is ≤ 1000 nM.

The record behind these values is US20230151017A1, “THERAPEUTIC AGENTS TARGETING GPR35” (PROMETHEUS BIOSCIENCES, INC., priority 2020, published 2023).
